Measured values: patent publication US20240076347A1, “METHODS FOR PREVENTING FUNGAL INFECTIONS” (Cidara Therapeutics, Inc., priority 2016, published 2024)
Read-outs that look alike come from different tables or passages of the source. Numbered stars: 1 amine (or outer) side, 2 acyl side, 3 side chain; on linkers, the order of the positions; unused ones are H or OH. Bridge positions count the residues as written; N and C are the ends. Square brackets hold non-standard residues; d marks the D form. Peptide text beside a SMILES is read from it. * marks the point of attachment. ξ: configuration not given here. Orn(4R-OH,5R-OCH2CH2NMe3+) = C[N+](C)(C)CCO[C@@H](N[*:3])[C@H](O)C[C@H](N[*:1])C(=O)[*:2]; pTerphenylCO(4''-OnC5H11) = CCCCCOc1ccc(-c2ccc(-c3ccc(C(=O)*)cc3)cc2)cc1; hTyr(3S-OH,4S-OH) = N[C@H](C(=O)O)[C@H](O)[C@@H](O)c1ccc(O)cc1; X1 = C[C@H]1CN([*:1])C(C(=O)[*:2])C1O; Hyp = O=C(O)[C@@H]1C[C@@H](O)CN1; ξT = CC(O)C(N)C(=O)O

Key:
[1] = Pharmacokinetic profile in mice after subcutaneous dose; type: in vivo; conditions: mouse, plasma, 10 mg/kg SC
[2] = tested on: Candida albicans ATCC SC5314; experiment: MIC used for free drug plasma concentration over MIC, candidiasis model; type: cell-based
[3] = tested on: A. fumigatus (ATCC 13073); experiment: Disseminated infection of immune competent DBA/2 mice, prophylaxis, survival; type: in vivo, Aspergillus fumigatus
Experimental: A. fumigatus (ATCC 13073) growth was taken from 96 hour potato dextrose agar (PDA) and re-suspended in 0.1% Tween 20. The culture was resuspended in 1 mL cold PBS (>1.0×10^8 CFU/mL, OD620 2.3-2.8). The culture was then diluted in PBS to final cellular densities of 1.0×10^7 CFU/mL. The actual colony counts were determined by plating dilutions on PDA plates to confirm inoculation concentration. The actual inoculum count was 1.30×10^7 CFU/mL.
Groups of 6 immune competent female DBA/2 mice weighing 18±2 g were used. On Day 0, animals were inoculated (0.1 mL/mouse) by intravenous (IV) injection into the tail vein with A. fumigatus (ATCC 13073), 1.30×10^6 CFU per mouse. CD101 at 3, 10 and 30 mg/kg as prophylaxis was administered subcutaneously (SC) once starting 5, 3 or 1 day before inoculation. In addition, CD101 at 3 mg/kg SC and the reference, amphotericin B, at 3 mg/kg by intraperitoneal (IP) injection were administered one hour after infection (See Table 2).
A 50 percent or more (≥50%) increase in the survival rate compared to the vehicle control group indicates significant anti-infective activity. The health observations including body weight, hunched posture, ruffled fur, immobility and hypothermia were recorded daily for 14 days.

[4] = tested on: C. albicans SC-5314 biofilms; experiment: Mature phase biofilms (treatment) on silicone elastomer discs; type: cell-based, Candida albicans
Experimental: Biofilms were formed on silicone elastomer (SE) discs using a catheter-associated-biofilm model (Chandra et al., Nature Protocols 3:1909, 2008; Chandra et al., J. […] Chandra et al., J. Dental Research 80: 903, 2001). For evaluation of activity against adhesion phase biofilms (prevention), Candida cells were adhered to catheter discs for 90 min. […] Discs incubated with fluconazole or media alone were used as controls in all experiments. […] Chandra et al., J. […] Chandra et al., J. Dental Research 80: 903, 2001). Following incubation with drugs, discs were transferred to fresh plates containing phosphate buffered saline with XTT and menadione, incubated for 3 h at 37° C. and optical density was read at 492 nm. Separate batches of biofilms were stained with fluorescent dyes (FUN1™, CONA) and observed under Confocal Scanning Laser Microscope (CSLM) to evaluate biofilm architecture and thickness (Chandra et al., Nature Protocols 3:1909, 2008; Chandra et al., J. […] Statistical analyses for all data were performed using GraphPad Prism 6 software. Drug treated groups were compared to control untreated groups using unpaired t-tests.

[5] = Monkey pharmacokinetics, SC and IV administration; type: in vivo, cynomolgus monkeys; conditions: for half-life / AUC(0-t) / Cmax / Tmax / AUC(0-inf): cynomolgus monkey, plasma
Experimental: Therefore, only local tolerability (and PK) of CD101 by SC administration required evaluation. […] Plasma concentrations were then quantified by liquid chromatography with tandem mass spectrometric detection (LC-MS/MS). Bioavailability from SC dosing was calculated by comparing the calculated area under the concentration-time profile (AUC) from SC against the AUC from IV administration of the same dose.

[6] = Pharmacokinetic profile in female rats, SC and IV; conditions: rat, in vivo
Excerpt: Pharmacokinetic Profile of CD101. The pharmacokinetic (PK) profile of CD101 in female rats (three per group) was characterized.

[7] = tested on: A. fumigatus (ATCC 13073); experiment: Disseminated infection of neutropenic ICR mice, prophylaxis, survival; type: in vivo, Aspergillus fumigatus
Experimental: Inoculum Preparation. A. fumigatus (ATCC 13073) growth was taken from 96 hr potato dextrose agar (PDA) and re-suspended in 0.1% Tween 20. The culture was resuspended in 1 mL cold PBS (>1.0×10^8 CFU/mL, OD620 2.3-2.8). The culture was then diluted in PBS to final cellular densities of 2.0×10^5 CFU/mL. The actual colony counts were determined by plating dilutions on PDA plates to confirm inoculation concentration. The actual inoculum count was 1.85×10^5 CFU/mL.
A. fumigatus (ATCC 13073) disseminated infection (IV). Groups of 6 female ICR mice weighing 22±2 g were used. Animals were immunosuppressed by three intraperitoneal (IP) injections of cyclophosphamide (the first at 6 mg/mouse 3 days before inoculation, the second and third at 2 mg/mouse on Day 1 then Day 4 after inoculation). On Day 0, animals were inoculated (0.1 mL/mouse) by intravenous (IV) injection into the tail vein with A. fumigatus (ATCC 13073), 1.85×10^4 CFU per mouse. CD101 at 5, 10 and 20 mg/kg as prophylaxis was administered subcutaneously (SC) once starting 5, 3 or 1 day before inoculation. […]
A 50 percent or more (≥50%) increase in the survival rate compared to the vehicle control group indicates significant anti-infective activity. The health observations including body weight, hunched posture, ruffled fur, immobility and hypothermia were recorded daily for 14 days. Animals found moribund were to be humanely sacrificed with CO2 asphyxiation in the study.

[8] = tested on: A. fumigatus clinical isolates; conditions: SENTRY surveillance (Pfaller, et al 2017); cited from earlier work
[9] = both sexes, sc, Subcutaneous, 30 mg/kg
[10] = female, animal 9707, F, 30 mg/kg SC single dose
[11] = male, animal 9697, M, 30 mg/kg SC single dose
[12] = 5, 10 and 20 mg/kg SC on Day −5, −3 and −1

Question: With `CCCCCOc1ccc(-c2ccc(-c3ccc(C(=O)N[C@H]4C[C@@H](O)[C@@H](OCC[N+](C)(C)C)NC(=O)C5C(O)[C@@H](C)CN5C(=O)[C@H]([C@@H](C)O)NC(=O)[C@H]([C@H](O)[C@@H](O)c5ccc(O)cc5)NC(=O)[C@@H]5C[C@@H](O)CN5C(=O)C(C(C)O)NC4=O)cc3)cc2)cc1` (stereo partly drawn) [CD101] ({pTerphenylCO(4''-OnC5H11)}-[Orn(4R-OH,5R-OCH2CH2NMe3+)][ξT][Hyp][hTyr(3S-OH,4S-OH)]T[X1]; lactam 1-C) as the compound, how does the half-life [1] read?
Answer: Its half-life is ~25 h.

Question: What about the bioavailability ([1]; read-out: absolute bioavailability) of the same compound?
Answer: The bioavailability was ~50%.

Question: What about the MIC [2] of the same compound?
Answer: The MIC was 0.03 µg/mL.

Question: What about the 14-day survival ([3]; 3 mg/kg SC 1 hour after infection) of the same compound?
Answer: The 14-day survival was “significant increase in the 14-day survival”.

Question: And the “symptoms of infection (body weight, hunched posture, ruffled fur, immobility, hypothermia)” value ([3]; 3, 10 and 30 mg/kg SC on Day −5, −3 and −1)?
Answer: The value was “improved”.

Question: And the “increase in the 14-day survival compared to the vehicle group” value ([3]; SC: 3 mg/kg Day −1, 10 mg/kg Day −5, −3, −1, 30 mg/kg Day −5, −3, −1)?
Answer: Its value is 50%.

Question: And the “biofilm architecture (CSLM)” value ([4]; 0.25 and 1 μg/ml)?
Answer: Its value is “eradicated and showed bulged, deformed/broken cells”.

Question: What about the “biofilm metabolic activity (XTT)” value ([4]; 0.25 and 1 μg/ml, 24 h, vs untreated, P<0.05) of the same compound?
Answer: Its value is “significantly less metabolic activity”.

Question: And the thickness of biofilms ([4]; CD101 exposed, untreated control 43 μm, P<0.05)?
Answer: Its thickness of biofilms is 24 μm.

Question: And the “time at which maximum plasma concentration was reached” value ([5]; 30 mg/kg SC)?
Answer: Its value is > 24 h.

Question: What about the “bioavailability (SC vs IV total exposure over 10 days)” value ([5]; 30 mg/kg SC vs IV) of the same compound?
Answer: The value was 80%.

Question: What about the half-life ([5]; both sexes, sc, 30 mg/kg, Subcutaneous) of the same compound?
Answer: The half-life was ~124 h.

Question: And the AUC(0-t) [5, 9]?
Answer: The AUC(0-t) was 2460 µg·h/mL.

Question: And the Cmax [5, 9]?
Answer: The Cmax was 13400 ng/mL.

Question: And the Tmax [5, 9]?
Answer: Its Tmax is 72 h.

Question: What about the AUC(0-inf) ([5]; both sexes, sc, Subcutaneous, 30 mg/kg, read-out: AUCinf) of the same compound?
Answer: The AUC(0-inf) was 3520 µg·h/mL.

Question: And the AUC(0-t) ([5]; iv, 30 mg/kg)?
Answer: Its AUC(0-t) is 3140 µg·h/mL.

Question: And the Cmax ([5]; iv, 30 mg/kg)?
Answer: The Cmax was 112000 ng/mL.

Question: And the Tmax ([5]; iv, 30 mg/kg)?
Answer: Its Tmax is 1 h.

Question: And the half-life ([5]; iv, 30 mg/kg)?
Answer: The half-life was 49.7 h.

Question: What about the AUC(0-inf) ([5]; iv, 30 mg/kg, read-out: AUCinf) of the same compound?
Answer: The AUC(0-inf) was 3340 µg·h/mL.

Question: What about the half-life ([5]; female, sc, 30 mg/kg, animal 9707, F, 30 mg/kg SC single dose) of the same compound?
Answer: The half-life was 171 h.

Question: And the AUC(0-t) [5, 10]?
Answer: The AUC(0-t) was 2180 µg·h/mL.

Question: What about the Cmax [5, 10] of the same compound?
Answer: Its Cmax is 10900 ng/mL.

Question: What about the Tmax [5, 10] of the same compound?
Answer: Its Tmax is 48 h.

Question: What about the AUC(0-inf) ([5]; female, animal 9707, F, 30 mg/kg SC single dose, read-out: AUCINF_obs) of the same compound?
Answer: The AUC(0-inf) was 3760 µg·h/mL.

Question: What about the half-life ([5]; male, sc, 30 mg/kg, animal 9697, M, 30 mg/kg SC single dose) of the same compound?
Answer: Its half-life is 76.2 h.

Question: And the AUC(0-t) [5, 11]?
Answer: Its AUC(0-t) is 2740 µg·h/mL.

Question: What about the Cmax [5, 11] of the same compound?
Answer: Its Cmax is 15900 ng/mL.

Question: What about the Tmax [5, 11] of the same compound?
Answer: The Tmax was 96 h.

Question: What about the AUC(0-inf) ([5]; male, animal 9697, M, 30 mg/kg SC single dose, read-out: AUCINF_obs) of the same compound?
Answer: Its AUC(0-inf) is 3280 µg·h/mL.

Question: And the Tmax ([6]; SC)?
Answer: The Tmax was 8 to 24 h.

Question: And the bioavailability ([6]; sc, 10 mg/kg)?
Answer: Its bioavailability is 97%.

Question: And the half-life ([6]; subcutaneous, 10 mg/kg, read-out: t½ (converted))?
Answer: Its half-life is 48 h.

Question: And the 14-day survival ([7]; 5 mg/kg SC 1 hr after infection)?
Answer: Its 14-day survival is “significant increase in the 14-day survival”.

Question: What about the “increase in the 14-day survival compared to the vehicle group” value [7, 12] of the same compound?
Answer: Its value is ≥ 50%.

Question: What about the “symptoms of infection (body weight, hunched posture, ruffled fur, immobility, hypothermia)” value [7, 12] of the same compound?
Answer: The value was “improved”.

Question: What about the MEC90 [8] of the same compound?
Answer: Its MEC90 is 0.015 µg/mL.
